What was measured:
tScCBS = target: T1, tScCBS (Saccharomyces cerevisiae, UniProt P32582); assay: Fluorescence emission titration of tScCBS (PLP excitation at 410 nm); assay type: binding; settings: tScCBS 1 mg/mL, pH 8.5; decrease in emission at 520 nm, excitation 410 nm; read-out: Dissociation constant Kd (fluorescence)
T1 construct: 6xHis (C); made in house
T1 sequence (P32582 1-345): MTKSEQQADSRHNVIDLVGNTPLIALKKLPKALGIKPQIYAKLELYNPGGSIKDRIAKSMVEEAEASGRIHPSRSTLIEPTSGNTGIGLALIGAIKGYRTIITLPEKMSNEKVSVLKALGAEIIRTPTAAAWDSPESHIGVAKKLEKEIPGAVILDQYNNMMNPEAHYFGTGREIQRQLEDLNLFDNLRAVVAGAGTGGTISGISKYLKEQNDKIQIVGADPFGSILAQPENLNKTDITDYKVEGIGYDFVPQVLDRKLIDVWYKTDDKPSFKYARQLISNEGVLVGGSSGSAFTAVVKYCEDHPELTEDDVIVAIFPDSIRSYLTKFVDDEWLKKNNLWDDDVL
Procedure: CBS enzymes. Recombinant truncated Saccharomyces cerevisiae CBS lacking the C-terminal regulatory domain (residues 346–507) and carrying the C-terminal 6xHis tag (tScCBS) was prepared as described previously. Engineered recombinant Homo sapiens CBS lacking a loop protruding from the central β-strand of the CBS2 domain corresponding to the residues 516–525 (HsCBS; described in detail in [21]) was purchased from GenScript.
UV − Vis and fluorescence spectroscopy. Absorption spectra were collected on a Tecan Infinite M200 Pro spectrophotometer in a buffer containing 50 mM Tris–HCl pH 8.5, 20 mM NaCl and 0.5 mM tris(2-carboxyethyl)phosphine (TCEP). All the spectra were carried out with a protein concentration of 1 mg/mL with a 1 cm path-length quartz cuvette in a total volume of 150 µL. tScCBS was titrated directly in a cuvette by successive additions of different concentrations of AOAA, Ser and Cys, respectively, and spectra were recorded between 240 and 600 nm after an incubation time of 3 min at RT. Fluorescence emission spectra were collected under the same conditions upon PLP excitation at 410 nm. Blank spectra were subtracted from sample spectra.

colon cancer cells = test system: colon cancer cells; design: method as in PMID 23836652, PMID 27521834, PMID 27257787; settings: transformed cells like colon cancer cells; cited from earlier work
human recombinant CSE = test system: human recombinant CSE; design: method as in PMID 23488457; settings: in vitro; cited from earlier work
human skin fibroblasts = test system: human skin fibroblasts; design: method as in PMID 31481613; settings: cited from earlier work

| Kd (tScCBS) [µM] | SMILES | Concentrations required to achieve similar level of inhibition of CBS-derived H2S biogenesis (colon cancer cells) [mM] | Potency inhibiting human recombinant CSE relative to CBS (human recombinant CSE) | Concentration shutting down CBS-derived H2S biogenesis (human skin fibroblasts) [µM] |
| --- | --- | --- | --- | --- |
| 39.5 ± 8.26 | N[C@@H](CO)C(=O)O [Ser, serine] |  |  |  |
|  | NOCC(=O)O [AOAA, aminooxyacetic acid] | 0.1 to 2 | ~ 8 times | 3 |
